The IC50 is the concentration that gives 50% inhibition.

Test [1] deals with MCF7 cells. Briefly: Anti-proliferation (viability) of MCF7 cells (Table 7, FIG. 2B). The test is classed as cell-based. As to conditions: Homo sapiens, MCF7, MCF7 cells, 3-6 days, 10-point serial dilution; read-out: GI IC50 in MCF-7.
In test [2] the target is CDK4 (Homo sapiens, UniProt P11802+Q16531). As to the kind of experiment: HiBiT detection of HiBiT-tagged CDK4 protein level in MCF7 cells, 16 hours (Table 8). The class given is cell-based. Further details: expressed in transfected cells; host or cells: MCF7. As to conditions: MCF7 cells stably expressing HiBiT tagged target proteins; for activity at 0.01 µM: 10 nM, read-out: % CDK4 Relative Level (10 nM); for activity at 0.1 µM: 100 nM, read-out: % CDK4 Relative Level (100 nM). The procedure:
HiBiT detection system quantitatively measures total amounts of HiBiT-tagged proteins using a luminescent based method. MCF7 cells stably expressing HiBiT tagged target proteins were treated with heterobifunctional compounds at indicated concentrations for 16 hours, then lysed with Nano-Glo HiBiT Lytic detection reagents.
(In general: With HiBiT, luminescence reflects the tagged protein that the partner subunit can reach.)

Sequence of CDK4 (P11802 whole entry): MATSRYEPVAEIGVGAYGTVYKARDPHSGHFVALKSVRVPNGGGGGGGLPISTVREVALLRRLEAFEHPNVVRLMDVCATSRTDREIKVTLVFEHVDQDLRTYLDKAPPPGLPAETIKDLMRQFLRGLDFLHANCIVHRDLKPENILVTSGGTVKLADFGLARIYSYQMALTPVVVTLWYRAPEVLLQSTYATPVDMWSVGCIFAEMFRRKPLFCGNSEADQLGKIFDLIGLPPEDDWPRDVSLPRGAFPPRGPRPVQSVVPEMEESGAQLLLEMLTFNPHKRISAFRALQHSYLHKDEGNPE
Sequence of CDK4 (P24385 whole entry partner): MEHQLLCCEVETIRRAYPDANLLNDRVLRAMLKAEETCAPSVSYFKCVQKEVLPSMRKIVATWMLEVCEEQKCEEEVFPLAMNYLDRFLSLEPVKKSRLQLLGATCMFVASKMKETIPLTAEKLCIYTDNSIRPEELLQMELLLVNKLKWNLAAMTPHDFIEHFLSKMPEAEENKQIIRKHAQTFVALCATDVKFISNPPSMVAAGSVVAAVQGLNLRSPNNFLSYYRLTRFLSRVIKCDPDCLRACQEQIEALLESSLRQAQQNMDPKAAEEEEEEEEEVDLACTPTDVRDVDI
Sequence of CDK4 (Q16531 2-1140 limits assumed): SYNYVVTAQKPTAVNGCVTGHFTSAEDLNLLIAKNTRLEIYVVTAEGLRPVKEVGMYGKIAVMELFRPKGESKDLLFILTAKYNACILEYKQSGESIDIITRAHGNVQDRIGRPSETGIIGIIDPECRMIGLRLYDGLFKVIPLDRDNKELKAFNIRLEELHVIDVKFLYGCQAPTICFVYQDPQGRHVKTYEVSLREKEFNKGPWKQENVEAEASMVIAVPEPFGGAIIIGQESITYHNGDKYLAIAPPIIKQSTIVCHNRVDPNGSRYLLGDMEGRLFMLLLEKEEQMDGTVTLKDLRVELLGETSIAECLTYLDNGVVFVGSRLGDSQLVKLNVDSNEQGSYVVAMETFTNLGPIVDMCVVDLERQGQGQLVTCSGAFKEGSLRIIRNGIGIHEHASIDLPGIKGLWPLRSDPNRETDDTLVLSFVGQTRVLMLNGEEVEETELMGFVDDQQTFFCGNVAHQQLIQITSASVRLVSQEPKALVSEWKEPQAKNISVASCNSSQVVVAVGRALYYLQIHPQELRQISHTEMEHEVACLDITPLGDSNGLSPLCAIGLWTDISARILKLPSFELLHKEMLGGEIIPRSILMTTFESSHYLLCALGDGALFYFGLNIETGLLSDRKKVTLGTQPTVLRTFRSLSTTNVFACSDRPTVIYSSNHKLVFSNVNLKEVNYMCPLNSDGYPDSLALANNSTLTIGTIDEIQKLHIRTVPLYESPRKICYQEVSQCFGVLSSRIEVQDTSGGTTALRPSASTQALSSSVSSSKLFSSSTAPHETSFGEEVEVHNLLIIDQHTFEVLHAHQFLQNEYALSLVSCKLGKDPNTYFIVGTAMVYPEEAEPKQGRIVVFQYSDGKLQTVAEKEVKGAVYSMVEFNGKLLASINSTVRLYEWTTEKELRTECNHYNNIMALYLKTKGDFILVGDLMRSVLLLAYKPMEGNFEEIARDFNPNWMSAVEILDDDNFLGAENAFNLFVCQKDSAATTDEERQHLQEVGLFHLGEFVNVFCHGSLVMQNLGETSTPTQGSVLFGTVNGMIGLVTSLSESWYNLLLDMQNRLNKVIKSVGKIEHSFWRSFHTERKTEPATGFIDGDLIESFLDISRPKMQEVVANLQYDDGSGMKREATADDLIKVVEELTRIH

`CC(=O)c1c(C)c2cnc(Nc3ccc(N4CCN(C5CCN(C(=O)C6(O)CCC(Nc7nc(NC(C)C)ccc7C(=O)Nc7ccc(N(C)C)nn7)CC6)C5)CC4)cn3)nc2n(C2CCCC2)c1=O` (stereo not drawn) [CPD-574, 2-((cis-4-(3-(4-(6-((6-acetyl-8-cyclopentyl-5-methyl-7-oxo-7,8-dihydropyrido[2,3-d]pyrimidin-2-yl)amino)pyridin-3-yl)piperazin-1-yl)pyrrolidine-1-carbonyl)-4-hydroxycyclohexyl)amino)-N-(6-(dimethylamino)pyridazin-3-yl)-6-(isopropylamino)nicotinamide]: the 50% inhibitory concentration (IC50) in test [1] was under 50 nM. Besides, in test [2], the activity at 0.01 µM is over 85% and the activity at 0.1 µM was 55 to 85%.

Consider `CC(=O)c1c(C)c2cnc(Nc3ccc(N4CCN(C5CCN(C(=O)[C@H]6CC[C@H](Nc7nc(C)ccc7C(=O)Nc7ccc(N(C)C)nn7)CC6)C5)CC4)cn3)nc2n(C2CCCC2)c1=O` (stereo partly drawn) [CPD-576, 2-((trans-4-(3-(4-(6-((6-acetyl-8-cyclopentyl-5-methyl-7-oxo-7,8-dihydropyrido[2,3-d]pyrimidin-2-yl)amino)pyridin-3-yl)piperazin-1-yl)pyrrolidine-1-carbonyl)cyclohexyl)amino)-N-(6-(dimethylamino)pyridazin-3-yl)-6-methylnicotinamide], for which the IC50 in test [1] is over 100 nM. For the same compound, in test [2], the activity at 0.01 µM lay within 55 to 85% and the activity at 0.1 µM lay in the range of 55 to 85%.

As for `CCc1ccc(C(=O)Nc2ccc(N(C)C)nn2)c(NC23CC(C(=O)N4CCC(N5CCN(c6ccc(Nc7ncc8c(C)c(C(C)=O)c(=O)n(C9CCCC9)c8n7)nc6)CC5)C4)(C2)C3)n1` (stereo not drawn) [CPD-577, 2-((3-(3-(4-(6-((6-acetyl-8-cyclopentyl-5-methyl-7-oxo-7,8-dihydropyrido[2,3-d]pyrimidin-2-yl)amino)pyridin-3-yl)piperazin-1-yl)pyrrolidine-1-carbonyl)bicyclo[1.1.1]pentan-1-yl)amino)-N-(6-(dimethylamino)pyridazin-3-yl)-6-ethylnicotinamide], in test [1], the half-maximal inhibitory concentration (IC50) is under 50 nM. Moreover, in test [2], the activity at 0.01 µM is over 85% and the activity at 0.1 µM was 55 to 85%.

`CCc1ccc(C(=O)Nc2ccc(N(C)C)nn2)c(NC2CC3(CC(NC(=O)CN4CCN(Cc5ccc(Nc6ncc7c(C)c(C(C)=O)c(=O)n(C8CCCC8)c7n6)nc5)CC4)C3)C2)n1` (stereo not drawn) [CPD-578, 2-((6-(2-(4-((6-((6-acetyl-8-cyclopentyl-5-methyl-7-oxo-7,8-dihydropyrido[2,3-d]pyrimidin-2-yl)amino)pyridin-3-yl)methyl)piperazin-1-yl)acetamido)spiro[3.3]heptan-2-yl)amino)-N-(6-(dimethylamino)pyridazin-3-yl)-6-ethylnicotinamide]: in test [1], the half-maximal inhibitory concentration (IC50) was under 50 nM. Also, in test [2], the activity at 0.01 µM lay within 55 to 85% and the activity at 0.1 µM was in the range of 55 to 85%.

For the compound `CC(=O)c1c(C)c2cnc(Nc3ccc(CN4CCN(CC(=O)NC5CC6(C5)CC(Nc5nc(C(C)C)ccc5C(=O)Nc5ccc(N(C)C)nn5)C6)CC4)cn3)nc2n(C2CCCC2)c1=O` (stereo not drawn) [CPD-579, 2-((6-(2-(4-((6-((6-acetyl-8-cyclopentyl-5-methyl-7-oxo-7,8-dihydropyrido[2,3-d]pyrimidin-2-yl)amino)pyridin-3-yl)methyl)piperazin-1-yl)acetamido)spiro[3.3]heptan-2-yl)amino)-N-(6-(dimethylamino)pyridazin-3-yl)-6-isopropylnicotinamide], the IC50 in test [1] was under 50 nM. Further, in test [2], the activity at 0.01 µM fell in the range of 55 to 85% and the activity at 0.1 µM lay within 55 to 85%.

As for `CC(=O)c1c(C)c2cnc(Nc3ccc(N4CCN(C5CCN(C(=O)C67CC(Nc8nc(C(C)C)ccc8C(=O)Nc8ccc(N(C)C)nn8)(C6)C7)C5)CC4)cn3)nc2n(C2CCCC2)c1=O` (stereo not drawn) [CPD-580, 2-((3-(3-(4-(6-((6-acetyl-8-cyclopentyl-5-methyl-7-oxo-7,8-dihydropyrido[2,3-d]pyrimidin-2-yl)amino)pyridin-3-yl)piperazin-1-yl)pyrrolidine-1-carbonyl)bicyclo[1.1.1]pentan-1-yl)amino)-N-(6-(dimethylamino)pyridazin-3-yl)-6-isopropylnicotinamide], in test [1], the IC50 was under 50 nM. Moreover, in test [2], the activity at 0.01 µM was 55 to 85% and the activity at 0.1 µM fell in the range of 55 to 85%.

Consider `CC(=O)c1c(C)c2cnc(Nc3ccc(CN4CCN(CC(=O)N5CCC6(CCC(Nc7nc(C8CC8)ccc7C(=O)Nc7ccc(N(C)C)nn7)C6)C5)CC4)cn3)nc2n(C2CCCC2)c1=O` (stereo not drawn) [CPD-581, 2-((2-(2-(4-((6-((6-acetyl-8-cyclopentyl-5-methyl-7-oxo-7,8-dihydropyrido[2,3-d]pyrimidin-2-yl)amino)pyridin-3-yl)methyl)piperazin-1-yl)acetyl)-2-azaspiro[4.4]nonan-7-yl)amino)-6-cyclopropyl-N-(6-(dimethylamino)pyridazin-3-yl)nicotinamide], for which the IC50 in test [1] is under 50 nM. Besides, in test [2], the activity at 0.01 µM was 55 to 85% and the activity at 0.1 µM fell in the range of 55 to 85%.

Consider `CCc1ccc(C(=O)Nc2ccc(N(C)C)nn2)c(NC2CCC3(CCN(C(=O)CN4CCN(Cc5ccc(Nc6ncc7c(C)c(C(C)=O)c(=O)n(C8CCCC8)c7n6)nc5)CC4)C3)C2)n1` (stereo not drawn) [CPD-582, 2-((2-(2-(4-((6-((6-acetyl-8-cyclopentyl-5-methyl-7-oxo-7,8-dihydropyrido[2,3-d]pyrimidin-2-yl)amino)pyridin-3-yl)methyl)piperazin-1-yl)acetyl)-2-azaspiro[4.4]nonan-7-yl)amino)-N-(6-(dimethylamino)pyridazin-3-yl)-6-ethylnicotinamide], for which, in test [1], the IC50 was under 50 nM. In test [2], the activity at 0.01 µM fell in the range of 55 to 85% and the activity at 0.1 µM was 55 to 85%.

Consider `CC(=O)c1c(C)c2cnc(Nc3ccc(CN4CCN(CC(=O)N5CCC6(CCC(Nc7nc(C(C)C)ccc7C(=O)Nc7ccc(N(C)C)nn7)C6)C5)CC4)cn3)nc2n(C2CCCC2)c1=O` (stereo not drawn) [CPD-583, 2-((2-(2-(4-((6-((6-acetyl-8-cyclopentyl-5-methyl-7-oxo-7,8-dihydropyrido[2,3-d]pyrimidin-2-yl)amino)pyridin-3-yl)methyl)piperazin-1-yl)acetyl)-2-azaspiro[4.4]nonan-7-yl)amino)-N-(6-(dimethylamino)pyridazin-3-yl)-6-isopropylnicotinamide], for which the IC50 in test [1] was under 50 nM. Besides, in test [2], the activity at 0.01 µM is 55 to 85% and the activity at 0.1 µM lay in the range of 55 to 85%.

Regarding `CC(=O)c1c(C)c2cnc(Nc3ccc(CN4CCN(CC(=O)NC5CC6(C5)CC(Nc5nc(NC(C)C)ccc5C(=O)Nc5cc7n(n5)CCC7)C6)CC4)cn3)nc2n(C2CCCC2)c1=O` (stereo not drawn) [CPD-584, 2-((6-(2-(4-((6-((6-acetyl-8-cyclopentyl-5-methyl-7-oxo-7,8-dihydropyrido[2,3-d]pyrimidin-2-yl)amino)pyridin-3-yl)methyl)piperazin-1-yl)acetamido)spiro[3.3]heptan-2-yl)amino)-N-(5,6-dihydro-4H-pyrrolo[1,2-b]pyrazol-2-yl)-6-(isopropylamino) nicotinamide], the IC50 in test [1] was under 50 nM. In addition, in test [2], the activity at 0.01 µM fell in the range of 55 to 85% and the activity at 0.1 µM was in the range of 55 to 85%.

Consider `CC(=O)c1c(C)c2cnc(Nc3ccc(CN4CCN(C(C)C(=O)NC5CC6(C5)CC(Nc5nc(NC(C)C)ccc5C(=O)Nc5ccc(N(C)C)nn5)C6)CC4)cn3)nc2n(C2CCCC2)c1=O` (stereo not drawn) [CPD-585, 2-((6-(2-(4-((6-((6-acetyl-8-cyclopentyl-5-methyl-7-oxo-7,8-dihydropyrido[2,3-d]pyrimidin-2-yl)amino)pyridin-3-yl)methyl)piperazin-1-yl)propanamido)spiro[3.3]heptan-2-yl)amino)-N-(6-(dimethylamino)pyridazin-3-yl)-6-(isopropylamino)nicotinamide], for which the IC50 in test [1] is under 50 nM. For the same compound, in test [2], the activity at 0.01 µM is 55 to 85% and the activity at 0.1 µM was in the range of 55 to 85%.

On to `CC(=O)c1c(C)c2cnc(Nc3ccc(C(C)N4CCN(CC(=O)NC5CC6(C5)CC(Nc5nc(NC(C)C)ccc5C(=O)Nc5ccc(N(C)C)nn5)C6)CC4)cn3)nc2n(C2CCCC2)c1=O` (stereo not drawn) [CPD-586, 2-((6-(2-(4-(1-(6-((6-acetyl-8-cyclopentyl-5-methyl-7-oxo-7,8-dihydropyrido[2,3-d]pyrimidin-2-yl)amino)pyridin-3-yl)ethyl)piperazin-1-yl)acetamido)spiro[3.3]heptan-2-yl)amino)-N-(6-(dimethylamino)pyridazin-3-yl)-6-(isopropylamino)nicotinamide], for which the IC50 in test [1] was under 50 nM. In test [2], the activity at 0.01 µM is 55 to 85% and the activity at 0.1 µM lay in the range of 55 to 85%.

With `CC(=O)c1c(C)c2cnc(Nc3ccc(N4CCN(C5CCN(C(=O)C67CC(Nc8nc(NC(C)C)ccc8C(=O)Nc8cc(C)n(C)n8)(C6)C7)C5)CC4)cn3)nc2n(C2CCCC2)c1=O` (stereo not drawn) [CPD-587, 2-((3-(3-(4-(6-((6-acetyl-8-cyclopentyl-5-methyl-7-oxo-7,8-dihydropyrido[2,3-d]pyrimidin-2-yl)amino)pyridin-3-yl)piperazin-1-yl)pyrrolidine-1-carbonyl)bicyclo[1.1.1]pentan-1-yl)amino)-N-(1,5-dimethyl-1H-pyrazol-3-yl)-6-(isopropylamino)nicotinamide], in test [1], the IC50 was under 50 nM. In test [2], the activity at 0.01 µM fell in the range of 55 to 85% and the activity at 0.1 µM was 55 to 85%.

As to `CC(=O)c1c(C)c2cnc(Nc3ccc(N4CCN(C5CCN(C(=O)C67CC(Nc8nc(NC(C)C)ccc8C(=O)Nc8cn(C)c(C9CC9)n8)(C6)C7)C5)CC4)cn3)nc2n(C2CCCC2)c1=O` (stereo not drawn) [CPD-588, 2-((3-(3-(4-(6-((6-acetyl-8-cyclopentyl-5-methyl-7-oxo-7,8-dihydropyrido[2,3-d]pyrimidin-2-yl)amino)pyridin-3-yl)piperazin-1-yl)pyrrolidine-1-carbonyl)bicyclo[1.1.1]pentan-1-yl)amino)-N-(2-cyclopropyl-1-methyl-1H-imidazol-4-yl)-6-(isopropylamino)nicotinamide], in test [1], the IC50 was under 50 nM. Also, in test [2], the activity at 0.01 µM is 55 to 85% and the activity at 0.1 µM is 55 to 85%.
